Values after ≈ are worked out from the molar mass of the structure shown. Where two headings read alike, the source gives them in different places.
How the values were obtained:
P. berghei ANKA strain [1] = experiment: treatment: 3x3 mg/kg and 3x1 mg/kg po divided doses in infected mice; type: in vivo, Plasmodium berghei; settings: for Activity (%) p.o. SSV: percent reduction of parasitemia day 4
Outline: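 NMRI mice infected i.v. with 2×10^7 P. berghei ANKA-parasitized erythrocytes on day 0, then dosed orally in SSV vehicle at 3×3 or 3×1 mg/kg on days 1–3. Day-4 Giemsa smears gave percent parasitemia reduction versus untreated controls; survival to day 30 counted as cure.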

[2] = test system: ANKA strain of Plasmodium berghei; experiment: single dose ED50/ED90/ED99 determinations in infected mice; type: in vivo
Outline: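 Mice (Moro SPF or NMRI, n=3 per group) infected with P. berghei ANKA received a single dose on day 1 post-infection, vehicle 0.5% CMC/0.5% benzyl alcohol/0.4% Tween 80/0.9% NaCl in water. Read-out is percent reduction in parasitemia on day 3; ED values by nonlinear fitting.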

P. berghei ANKA strain [3] = experiment: prophylactic activity, single 100 mg/kg po dose before infection; type: in vivo, Plasmodium berghei; settings: for Prophylactic Activity (%): reduction of parasitemia day 3 post-infection
Method: Moro NMRI male mice (Fü Albino specific pathogen free) weighing 18±2 g were infected intravenously (i.v.) with 2×10^7 P. berghei ANKA strain-infected erythrocytes from donor mice on day 0 of the experiment. From donor mice with circa 30% parasitemia, heparinized blood was taken and diluted in physiological saline to 10^8 parasitized erythrocytes per ml. An aliquot (0.2 ml) of this suspension was injected i.v. into experimental and control groups of mice. In untreated control mice, parasitemia rose regularly to 40 to 50% by day 3 post-infection and 70 to 80% by day 4 post-infection. The mice died between days 5 and 7 post-infection. Throughout the experiments, mice were kept in groups of three or five animals in Makrolon type II cages in an air-conditioned animal room at 22 to 23° C. A diet with p-aminobenzoic acid (PABA) of 45 mg (NAFAG FUTTER© food N^o 9009 PAB-45) per kg of body weight, and tap water is available ad libitum.
OZ compounds were prepared at an appropriate concentration, either as a solution or a suspension containing SSV (0.5% w/v CMC, 0.5% v/v benzyl alcohol, 0.4% v/v Tween 80, and 0.9% w/v sodium chloride in water). They were administered per os (p.o.) in a total volume of 0.01 ml per gram of mouse. The activity of the compound was determined by a variety of methods outlined in subsequent sections. Survival time was also recorded, and survival to day 30 post-infection was considered to be a cure.
Prophylactic activities of the compounds were compared after administering po single dose of 100 mg/kg to different groups of five animals at various times before infection. All groups including an untreated control group, were then infected at the same time. Parasitemia was determined for each animal on day 3 post-infection, and percent of reduction of the level of parasitemia compared to levels for animals given no drug is determined.

[4] = test system: parasitemia (malaria infection); experiment: onset of action and recrudescence experiments; type: in vivo
Method: The onset of drug action was determined after a single fixed dose of 100 mg/kg (SSV vehicle) po to groups of five animals on day +3 post-infection (day 0).

[5] = test system: ANKA strain of P. berghei; experiment: single dose STI in vivo screen in infected mice; parameters: species or system Plasmodium berghei
Outline: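 Groups of 3-5 Moro SPF or NMRI mice infected with the ANKA strain of P. berghei received a single dose of trioxolane on day one post-infection. The compound was given in 3% ethanol and 7% Tween 80 or in SSV (0.5% w/v CMC, 0.5% v/v benzyl alcohol, 0.4% v/v Tween 80, 0.9% w/v sodium chloride in water). Antimalarial activity was scored as percent reduction in parasitemia on day three and as survival time versus untreated controls. Survival to day 30 counted as cure.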

P. berghei ANKA strain [6] = experiment: treatment: 3x10 mg/kg p.o. divided dose vs 1x30 mg/kg po single dose in infected mice; type: in vivo, Plasmodium berghei; settings: for Activity (%) p.o. SSV: percent reduction of parasitemia day 4
Method: Moro NMRI male mice (Fü Albino specific pathogen free) weighing 18±2 g were infected intravenously (i.v.) with 2×10^7 P. berghei ANKA strain-infected erythrocytes from donor mice on day 0 of the experiment. From donor mice with circa 30% parasitemia, heparinized blood was taken and diluted in physiological saline to 10^8 parasitized erythrocytes per ml. An aliquot (0.2 ml) of this suspension was injected i.v. into experimental and control groups of mice. […] Throughout the experiments, mice were kept in groups of three or five animals in Makrolon type II cages in an air-conditioned animal room at 22 to 23° C.
They were administered per os (p.o.) in a total volume of 0.01 ml per gram of mouse. The activity of the compound was determined by a variety of methods outlined in subsequent sections. Survival time was also recorded, and survival to day 30 post-infection was considered to be a cure.
The first experiment conducted consisted of administration of a divided 3×10 mg/kg p.o. dose administered on days 1, 2, and 3 post-infection vs. a single 1×30 mg/kg po dose administered on day 1 post-infection. On day 4 post-infection, blood smears of all animals were prepared and stained with Giemsa. […] Compounds were administered orally in the SSV vehicle.

[7] = test system: P. falciparum NF54 strain (sensitive to standard antimalarials); experiment: semiautomated microdilution assay, [3H]-hypoxanthine incorporation, NF54 strain; type: cell-based, Plasmodium falciparum; settings: NF54 strain, 72 h incubation
Outline: (§1)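 Asynchronous stock cultures → intraerythrocytic forms; semiautomated microdilution; IC50 by logit regression.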

[8] = test system: P. falciparum K1 strain (Thailand resistant to chloroquine); experiment: semiautomated microdilution assay, [3H]-hypoxanthine incorporation, K1 strain; type: cell-based, Plasmodium falciparum; settings: K1 strain, 72 h incubation
Outline: as §1

[9] = test system: Schistosoma mansoni adult schistosomes (49-day-old); experiment: effect on adult schistosomes (49-day-old) in mice; type: in vivo
Method: Mice were infected with 100 Schistosoma mansoni cercariae […]. Each group was treated per os with OZ compounds at single doses of 200, 400, and 600 mg/kg. […] All groups were killed 4 weeks after treatment and the liver and intestine were removed and separated. The liver and intestine were compressed and alive male and female worms could be seen and counted.

Schistosoma japonicum = experiment: effect in mice infected with Schistosoma japonicum; type: in vivo; settings: for MFWB/x ± SD (mean female worm burden): control 11.6 ± 2.4; for MTWB/x ± SD (mean total worm burden): control 26.6 ± 4.2
[10] = 3 × 1 mg/kg days 1, 2, 3 post-infection
[11] = 3 × 3 mg/kg days 1, 2, 3 post-infection
[12] = single dose po in SSV, mice, percent reduction in parasitemia on day three post-infection
[13] = single 100 mg/kg po 24 h before infection
[14] = single 100 mg/kg po (SSV) on day +3 post-infection, recrudescence = >5% parasitemia, followed up to 60 days, (n/5) = animals
[15] = percent reduction in parasitemia day 3 post-infection, single 3 mg/kg po in SSV
[16] = 3 × 10 mg/kg days 1, 2, 3 post-infection
[17] = age of worm 7 days, 200 mg/kg x 1
[18] = age of worm 35 days, 200 mg/kg x 1
[19] = age of worm 35 days, 400 mg/kg x 1

Compound: C[C@H]1[C@H](OC(=O)CCC(=O)O)O[C@@H]2O[C@@]3(C)CC[C@H]4[C@H](C)CC[C@@H]1[C@@]24OO3 [AS, artesunate, reference compound]
- Survival (days) p.o. SSV (P. berghei ANKA strain [1]; [10]): 6.8 days
- Activity (%) p.o. SSV (P. berghei ANKA strain [1]; [10]): 39%
- Survival (days) p.o. SSV (P. berghei ANKA strain [1]; [11]): 9.4 days
- Activity (%) p.o. SSV (P. berghei ANKA strain [1]; [11]): 78%
- ED50 ([2]; Plasmodium berghei, po): 4.7 mg/kg
- ED90 [2, 12]: 19 mg/kg
- ED99 [2, 12]: 60 mg/kg
- Prophylactic Activity (%) (P. berghei ANKA strain [3]; [13]): 6.28%
- Prophylactic Activity (%) (P. berghei ANKA strain [3]; single 100 mg/kg po at 0 h): 92.44%
- Time of Recrudescence [4, 14]: 8.6 days
- Activity (%) 3 mg/kg SSV po [5, 15]: 66%
- Activity (%) 10 mg/kg SSV po ([5]; percent reduction in parasitemia day 3 post-infection, single 10 mg/kg po in SSV): 87%
- Survival (days) 10 mg/kg SSV po ([5]; single 10 mg/kg po in SSV): 7.0 days
- Activity (%) p.o. SSV (P. berghei ANKA strain [6]; 1 × 30 mg/kg single dose day 1 post-infection): 83.83%
- Survival (days) p.o. SSV (P. berghei ANKA strain [6]; [16]): 11 days
- Activity (%) p.o. SSV (P. berghei ANKA strain [6]; [16]): 98.62%
- Cures (P. berghei ANKA strain [6]; 3 × 10 mg/kg, survival to day 30 post-infection = cure, cured/treated mice): 0/5

Compound: OC(c1cc(C(F)(F)F)nc2c(C(F)(F)F)cccc12)C1CCCCN1 (stereo not drawn) [MFQ, mefloquine, reference compound]
- Survival (days) p.o. SSV (P. berghei ANKA strain [1]; [10]): 6.2 days
- Activity (%) p.o. SSV (P. berghei ANKA strain [1]; [10]): 2%
- Survival (days) p.o. SSV (P. berghei ANKA strain [1]; [11]): 12 days
- Activity (%) p.o. SSV (P. berghei ANKA strain [1]; [11]): 98%
- ED50 ([2]; Plasmodium berghei, single dose po in SSV, mice, percent reduction in parasitemia on day three post-infection, read-out: ED50): 4 mg/kg
- ED90 [2, 12]: 5.4 mg/kg
- ED99 [2, 12]: 6.8 mg/kg
- Prophylactic Activity (%) (P. berghei ANKA strain [3]; [13]): 100%
- Prophylactic Activity (%) (P. berghei ANKA strain [3]; single 100 mg/kg po 48 h before infection): 99.92%
- Prophylactic Activity (%) (P. berghei ANKA strain [3]; single 100 mg/kg po 72 h before infection): 99.97%
- Prophylactic Activity (%) (P. berghei ANKA strain [3]; single 100 mg/kg po at 0 h): 100%
- duration of prophylactic protection (P. berghei ANKA strain [3]; single 100 mg/kg po before infection): 3 days
- Time of Recrudescence [4, 14]: 28.0 days
- onset of action (decline in parasitemia) ([4]; single 100 mg/kg po (SSV), parasitemia monitored 12, 24, 48 h after treatment): slow onset of action
- Activity (%) 3 mg/kg SSV po [5, 15]: 9%
- Survival (days) 3 mg/kg SSV po ([5]; single 3 mg/kg po in SSV): 6.3 days
- Survival (days) 10 mg/kg SSV po ([5]; single 10 mg/kg po in SSV): 17 days
- IC50 ([7]; Plasmodium falciparum, read-out: IC50 (ng/ml) NF54): 5 ng/mL (≈ 0.0132 µM)

Compound: Cc1ccc(S(=O)(=O)O)cc1.NC[C@H]1CC[C@]2(CC1)OOC1(O2)C2CC3CC(C2)CC1C3 (stereo partly drawn) [OZ207]
- IC50 (ng/ml) K1 [8]: 0.33 ng/mL
- ED50 [2, 12]: 0.37 mg/kg
- ED90 [2, 12]: 1.2 mg/kg
- ED99 [2, 12]: 3.0 mg/kg
- Time of Recrudescence (days) [4, 14]: no recrudescence
- Tox (mice) ([9]; 600 mg/kg per os, infected mice): Tox: ++2/5
- % reduction of adult worms growth at day 49 after per os application of 200 mg/kg, TWR (%) ([9]; single 200 mg/kg per os): 32%
- adult worms at day 49, per os 200 mg/kg, DEAD WORM (%) ([9]; single 200 mg/kg per os): 17%
- % reduction of adult worms growth at day 49 after per os application of 400 mg/kg, TWR (%) ([9]; single 400 mg/kg per os): 35%
- adult worms at day 49, per os 400 mg/kg, DEAD WORM (%) ([9]; single 400 mg/kg per os): 21%
- % reduction of adult worms growth at day 49 after per os application of 600 mg/kg, TWR (%) ([9]; single 600 mg/kg per os): 11%
- adult worms at day 49, per os 600 mg/kg, DEAD WORM (%) ([9]; single 600 mg/kg per os): 24%
- Activity (%) po ([5]; percent reduction in parasitemia day 3 post-infection, single 10 mg/kg po in 3% ethanol and 7% Tween 80, mice): 99.96%
- Activity (%) sc ([5]; percent reduction in parasitemia day 3 post-infection, single 10 mg/kg sc in 3% ethanol and 7% Tween 80, mice): 99.98%
- Activity (%) SSVpo ([5]; percent reduction in parasitemia day 3 post-infection, single po dose in standard suspending vehicle (SSV), mice): 99.98%
- Survival (days) po ([5]; single 10 mg/kg po in 3% ethanol and 7% Tween 80, untreated control 5.6 ± 0.3): 9.3 days
- Survival (days) sc ([5]; single 10 mg/kg sc in 3% ethanol and 7% Tween 80, untreated control 5.6 ± 0.3): 11.3 days
- Survival (days) SSVpo ([5]; single po dose in SSV, untreated control 5.6 ± 0.3): 12.0 days
- IC50 (ng/ml) NF54 [7]: 0.57 ng/mL
- Mice without ♀ worm (Schistosoma japonicum; [17]): 0/8
- MFWB/x ± SD (mean female worm burden) (Schistosoma japonicum; [17]): 2.1 ± 1.0
- MTWB/x ± SD (mean total worm burden) (Schistosoma japonicum; [17]): 5.4 ± 2.4
- FWRR/% (female worm reduction rate) (Schistosoma japonicum; [18]): 95%
- Mice without ♀ worm (Schistosoma japonicum; [18]): 4/7
- WRR/% (worm reduction rate) (Schistosoma japonicum; [18]): 66%
- MFWB/x ± SD (mean female worm burden) (Schistosoma japonicum; [18]): 0.6 ± 0.7
- MTWB/x ± SD (mean total worm burden) (Schistosoma japonicum; [18]): 9.1 ± 3.9
- FWRR/% (female worm reduction rate) (Schistosoma japonicum; [19]): 94%
- Mice without ♀ worm (Schistosoma japonicum; [19]): 4/6
- MFWB/x ± SD (mean female worm burden) (Schistosoma japonicum; [19]): 0.7 ± 1.2
- MTWB/x ± SD (mean total worm burden) (Schistosoma japonicum; [19]): 4.3 ± 1.2

From patent publication US6906205B2, “Spiro and dispiro 1,2,4-trioxolane antimalarials” (Medicines for Malaria Venture MMV, priority 2002, dated 2005)
